39 compounds from patent US20250034170A1, “SMALL MOLECULE MODULATORS OF GLUCOCEREBROSIDASE ACTIVITY AND USES THEREOF” (Vanqua Bio, Inc., priority 2021, published 2025) can be followed below.

The assay concerns the target T1, GCase (Homo sapiens, UniProt P04062).
T1 construct: endogenous in cells; host or cells: HeLa cells
T1 sequence (P04062 40-536): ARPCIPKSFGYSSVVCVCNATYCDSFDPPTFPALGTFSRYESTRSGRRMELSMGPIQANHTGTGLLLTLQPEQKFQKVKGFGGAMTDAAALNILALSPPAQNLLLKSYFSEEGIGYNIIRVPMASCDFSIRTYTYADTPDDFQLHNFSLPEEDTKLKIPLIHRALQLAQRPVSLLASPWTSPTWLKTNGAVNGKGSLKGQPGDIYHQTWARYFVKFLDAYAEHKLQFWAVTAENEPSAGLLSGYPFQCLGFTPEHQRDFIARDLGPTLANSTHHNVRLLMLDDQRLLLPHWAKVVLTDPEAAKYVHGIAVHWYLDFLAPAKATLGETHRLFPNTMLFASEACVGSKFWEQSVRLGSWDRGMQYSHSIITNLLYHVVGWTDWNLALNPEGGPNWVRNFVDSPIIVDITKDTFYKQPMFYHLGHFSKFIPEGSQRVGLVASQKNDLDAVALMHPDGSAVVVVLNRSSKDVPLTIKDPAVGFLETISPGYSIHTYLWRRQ
The assay is described as follows: activation of GCase in a live cell PFB assay in HELA cells. The class given is cell-based. How it is done: Exemplary compounds were evaluated for activation of GCase in a live cell PFB assay in HELA cells (essentially as described in Ysselstein et al., “LRRK2 kinase activity regulates lysosomal glucocerebrosidase in neurons derived from Parkinson's disease patients” Nature Communications (2019) 10:5570). […] EC50 ranges: A: <10 μM; B: >10-50 μM; C: >50-100 μM; D: >100 μM.

The mark [1] stands for this setting: activation of GCase, EC50 ranges.

Structures are written as SMILES. Some results are limits rather than exact numbers.

As a reminder, the EC50 is the concentration that produces a half-maximal response. A low value points to greater potency.

Compound `Cc1nc(N2CCC3(CCN(c4nc5c(cnn5CC(F)F)c(=O)n4C)CC3)C2)cc(C(F)(F)F)n1` [Cmpd 1053] displayed a 50% effective concentration (EC50) under setting [1] of less than 10 µM.
Same read-out and setting: for `FC(F)Cn1ncc2ncc(N3CCC4(CCN(c5ccc(C(F)(F)F)cn5)CC4)C3)nc21` [Compound 150, 2-[1-(2,2-difluoroethyl)-1H-pyrazolo[3,4-b]pyrazin-6-yl]-8-[5-(trifluoromethyl)pyridin-2-yl]-2,8-diazaspiro[4.5]decane] the value was 10 to 50 µM; for `O=C1N(c2cccnc2C(F)(F)F)CCC12CCN(c1cnc3cnn(CC(F)F)c3n1)CC2` [Compound 135, 8-[1-(2,2-difluoroethyl)-1H-pyrazolo[3,4-b]pyrazin-6-yl]-2-[2-(trifluoromethyl)pyridin-3-yl]-2,8-diazaspiro[4.5]decan-1-one], 50 to 100 µM; for `CCc1nn(CC(F)F)c2nc(N3CCC4(CN(c5ccnc(C(F)(F)F)c5)C4)C3)cnc12` [Cmpd 1068], 10 to 50 µM.
Still for that read-out and setting: then `CCc1nn(C2COC2)c2nc(N3CCC4(CN(c5cc(C(F)(F)F)nc(C)n5)C4)C3)cnc12` [Cmpd 1065], with 10 to 50 µM; and `COc1nn(CC(F)F)c2nc(N3CCC4(CC3)CC(=O)N(c3ccc(C(F)(F)F)nc3)C4)ncc12` [Cmpd 948], with 10 to 50 µM.
`Cc1nc(N2CC3(CCN(c4ccc5cnn(CC(F)F)c5n4)CC3)C2)cc(C(F)(F)F)n1` [Cmpd 623] registered an EC50 (EC50 given as range classes) of less than 10 µM.
`FC(F)Cn1ncc2ncc(N3CC4(CC(COc5cccnc5C(F)(F)F)C4)C3)nc21` [Compound 131, 2-[1-(2,2-difluoroethyl)-1H-pyrazolo[3,4-b]pyrazin-6-yl]-6-({[2-(trifluoromethyl)pyridin-3-yl]oxy}methyl)-2-azaspiro[3.3]heptane] returned an EC50 under setting [1] of less than 10 µM.
On the same count and under the same terms, for `CCN1C(=O)N(c2ccnc(C(F)(F)F)c2)C(=O)C12CCN(c1cnc3cnn(CC(F)F)c3n1)CC2` [Cmpd 850] the value was less than 10 µM.
On to `Cc1nc(N2CC3(CCN(c4ncc5c(C)nn(C6COC6)c5n4)CC3)C2)cc(C(F)(F)F)n1` [Cmpd 570], for which the EC50 under setting [1] is 10 to 50 µM.
Still for that read-out and setting: then `Cc1cc(N2CC3(CCN(c4cnc5cnn([C@@H]6CCOC6)c5n4)C3)C2)nc(C(F)(F)F)n1` [Cmpd 1147], with less than 10 µM.
Same read-out and setting: for `O=C1N(c2cc(C(F)(F)F)ccn2)C2(CC2)CC12CCN(c1cnc3cnn(CC(F)F)c3n1)CC2` [Cmpd 311] the value was 10 to 50 µM; for `FC(F)(F)Cn1ncc2ncc(N3CCC4(CCN(c5cc(C(F)(F)F)ccn5)C4)CC3)nc21` [Compound 177, 8-[1-(2,2,2-trifluoroethyl)-1H-pyrazolo[3,4-b]pyrazin-6-yl]-2-[4-(trifluoromethyl)pyridin-2-yl]-2,8-diazaspiro[4.5]decane], 50 to 100 µM; for `FC(F)Cn1ncc2ncc(N3CCC4(CCC(Oc5cccnc5C(F)(F)F)C4)CC3)nc21` (stereo not drawn) [Compound 86, 8-[1-(2,2-difluoroethyl)-1H-pyrazolo[3,4-b]pyrazin-6-yl]-2-{[2-(trifluoromethyl)pyridin-3-yl]oxy}-8-azaspiro[4.5]decane], less than 10 µM.
Same read-out and setting: for `Cc1nn(C2COC2)c2nc(N3CCC4(CCN(c5ccnc(C(F)(F)F)c5)C4)C3)ncc12` (stereo not drawn) [Cmpd 475] the value was more than 100 µM; for `Cc1nc(N2CC3(CCN(c4cnc5cnn(CC(F)(F)F)c5n4)CC3)C2)cc(C(F)(F)F)n1` [Cmpd 567], less than 10 µM.
Under setting [1], `CN(C)C(=O)c1cccc(N2CCC3(CCN(c4cnc5cnn(CC(F)F)c5n4)CC3)C2=O)n1` [Cmpd 671] registered an EC50 of less than 10 µM.
Same read-out and setting: for `Cc1nc(N2CC3(CCN(c4nc5c(cnn5CC(F)F)c(=O)n4CC(C)C)C3)C2)cc(C(F)(F)F)n1` [Cmpd 1112] the value was less than 10 µM; for `Cc1cnc(C(F)(F)F)nc1N1CCC2(CCN(c3cnc4cnn(CC(F)F)c4n3)CC2)C1=O` [Cmpd 842], 10 to 50 µM; for `COc1nn(CC(F)F)c2nc(N3CCC4(CC3)CC(=O)N(c3ccnc(C(F)(F)F)c3)C4)cnc12` [Cmpd 940], less than 10 µM.
In turn, `FC(F)Cn1ncc2ncc(N3CCC4(CC3)CC(Nc3ccc(C(F)(F)F)nc3)C4)nc21` [Cmpd 230] showed an EC50 (EC50 given as range classes) of 10 to 50 µM.
Regarding `FC(F)Cn1ncc2ncc(NC3CCC4(CCN(c5cc(C(F)(F)F)ccn5)CC4)C3)nc21` (stereo not drawn) [Cmpd 196], for the setting “EC50 given as range classes”, the EC50 was more than 100 µM.
Still for that read-out and setting: for `O=C(c1ccccc1C(F)(F)F)N1CC2(CCN(c3cnc4cnn(CC(F)F)c4n3)C2)C1` [Cmpd 392] the value was less than 10 µM.
On to `O=C1N(c2ccc(C(F)(F)F)nc2)C(=O)C2(CCN(c3ncc4cnn(CC(F)F)c4n3)CC2)N1CC(F)F` [Cmpd 875], for which the EC50 under setting [1] was less than 10 µM.
In turn, `FC(F)Cn1ncc2ncc(N3CCC4(CC3)CN(c3ccc(C(F)(F)F)cn3)CCO4)nc21` [Cmpd 207] came in with an EC50 (EC50 given as range classes) of less than 10 µM.
In turn, `FC(F)Cn1ncc2ncc(N3CCC4(CN(c5ccnc(OCC(F)(F)F)c5)C4)C3)nc21` [Cmpd 412] had an EC50 (EC50 given as range classes) of 10 to 50 µM.
As for `Cn1c(N2CCC3(CC2)CC(=O)N(c2ccnc(C(F)(F)F)c2)C3)nc2c(cnn2CC(F)F)c1=O` [Cmpd 923], the EC50 under setting [1] is less than 10 µM.
Still for that read-out and setting: for `FC(F)Cn1ncc2ncc(N3CCC4(CC3)CCN(c3ccncc3C(F)(F)F)C4)nc21` [Compound 156, 8-[1-(2,2-difluoroethyl)-1H-pyrazolo[3,4-b]pyrazin-6-yl]-2-[3-(trifluoromethyl)pyridin-4-yl]-2,8-diazaspiro[4.5]decane] the value was less than 10 µM.
On the same count and under the same terms, for `CCOc1nn(C2COC2)c2nc(N3CCC4(CC3)CC(=O)N(c3ccc(C(F)(F)F)nc3)C4)cnc12` [Cmpd 951] the value was less than 10 µM; for `FC(F)Cn1ncc2ncc(N3CCC4(CCCC4COc4cccc(C(F)(F)F)n4)CC3)nc21` (stereo not drawn) [Compound 80, 8-[1-(2,2-difluoroethyl)-1H-pyrazolo[3,4-b]pyrazin-6-yl]-1-({[6-(trifluoromethyl)pyridin-2-yl]oxy}methyl)-8-azaspiro[4.5]decane], 10 to 50 µM.
Still for that read-out and setting: then `FC(F)Cn1ncc2ncc(N3CCC4(CN(c5cnc(C(F)(F)F)cn5)C4)C3)nc21` [Cmpd 317], with 10 to 50 µM.
In the case of `CCn1c(=O)n(C2COC2)c2nc(N3CCC4(CN(c5ccnc(C(F)(F)F)c5)C4)C3)cnc21` [Cmpd 981], the concentration giving a half-maximal response (EC50) (EC50 given as range classes) fell in the range of 10 to 50 µM.
Regarding `O=C1CCC2(CN(c3cnc4cnn(CC(F)F)c4n3)C2)CN1c1cccc(C(F)(F)F)n1` [Compound 114, 2-[1-(2,2-difluoroethyl)-1H-pyrazolo[3,4-b]pyrazin-6-yl]-6-[6-(trifluoromethyl)pyridin-2-yl]-2,6-diazaspiro[3.5]nonan-7-one], the EC50 under setting [1] is 10 to 50 µM.
Still for that read-out and setting: for `Cc1nc(N2CCC3(CC(=O)N(c4cnc5cnn(CC(F)F)c5n4)C3)C2)cc(C(F)(F)F)n1` (stereo not drawn) [Cmpd 509] the value was 10 to 50 µM.
Still for that read-out and setting: for `CCn1c(N2CCC3(CN(c4cc(C(F)(F)F)nc(C)n4)C3)C2)nc2c(cnn2C2COC2)c1=O` [Cmpd 1115] the value was 10 to 50 µM.
Turning to `FC(F)Cn1ncc2ncc(N3CCOC4(CCN(c5ccc(C(F)(F)F)nc5)CC4)C3)nc21` [Cmpd 209], the EC50 (EC50 given as range classes) was less than 10 µM.
In turn, `FC(F)Cn1ncc2ncc(N3CCCC4(CC(Oc5ncccc5C(F)(F)F)C4)C3)nc21` (stereo not drawn) [Compound 32, 6-[1-(2,2-difluoroethyl)-1H-pyrazolo[3,4-b]pyrazin-6-yl]-2-{[3-(trifluoromethyl)pyridin-2-yl]oxy}-6-azaspiro[3.5]nonane] registered an EC50 under setting [1] of 10 to 50 µM.
Same read-out and setting: for `O=C1CC2(CCN(c3cnc4cnn(CC(F)F)c4n3)CC2)CN1c1ccnc(C(F)(F)F)c1` [Cmpd 683] the value was less than 10 µM.
On the same count and under the same terms, then `Cc1nc(N2CCC3(CCN(c4ncc5cnn(C6COC6)c5n4)C3)C2)cc(C(F)(F)F)n1` (stereo not drawn) [Cmpd 545], with more than 100 µM.
